Calls of active or inactive are those of the source. How the calls were made is not given here.
These molecules were tested on Jurkat NF-kB reporter, TCR-induced, luciferase luminescence (assay: inhibitors of TCR-driven NF-kB activation, dose response, Jurkat cells, luminescence (AID 489035)).

SMILES | IC50
COC(=O)C1CN(C#N)N(c2ccc(Cl)cc2)C12c1ccccc1-c1ccccc12 (stereo not given) | 0.9 µM
Cc1c(C(=O)N2CCOCC2)[nH]c2c1C(=O)CC(c1ccccc1Cl)C2 (stereo not given) | > 80 µM (inactive)
CC[C@@]1(O)C(=O)OCc2c1cc1n(c2=O)Cc2cc3c(CN(C)C)c(O)ccc3nc2-1 | 0.2 µM
O=C(/C=C/c1cccc([N+](=O)[O-])c1)n1cnc2ccccc21 | 5.79 µM
COc1cc(C2C(C#N)=C(N)Oc3cc(N(C)C)ccc32)cc2c1OCO2 (stereo not given) | > 80 µM (inactive)
Oc1ccccc1N=Nc1nc(-c2ccccc2)c(-c2ccccc2)[nH]1 | 0.82 µM
CC1=Nc2ccccc2/C1=C\c1sc(Nc2ccc(C)cc2)nc1O | > 80 µM (inactive)
COc1cc(C(=O)N2CCN(c3cccc(C)c3C)CC2)cc(OC)c1OC | > 80 µM (inactive)
CCCCCCCCCCn1c2c(c(=N)c3c1CCC3)CCC2 | 5.17 µM
CCCCCc1ccc(OCCCC[n+]2ccc(C)cc2)c(CCCCC)c1 | 8.23 µM
CC[n+]1cc(C)ccc1/C=C/c1ccc(N(C)C)cc1 | > 80 µM (inactive)
CCOc1ccccc1NC(=O)Cn1nnc(C(=O)NCc2ccco2)c1N | > 80 µM (inactive)
CC(C)(C)c1ccc(C(=O)O/N=C(\N)c2ccccc2)cc1 | 2.31 µM
CCN(CC)c1ccc(NC(=O)c2cc(OC)cc(OC)c2)c(C)c1 | > 80 µM (inactive)
O=c1cc(-c2ccccc2)[nH]c2ccccc12 | > 80 µM (inactive)
CSc1ccc(COC(=O)c2cc([N+](=O)[O-])ccc2N2CCOCC2)cc1 | > 80 µM (inactive)
CCCC(=O)NC(c1ccc(C)cc1)c1ccc2cccnc2c1O (stereo not given) | 8.63 µM
CCOc1ccccc1NC(=O)Cn1nnc(C(=O)NCc2cccs2)c1N | > 80 µM (inactive)
COC(=O)Cc1[nH]n(-c2nc3ccccc3s2)c(=O)c1C(C)=Nc1ccc(OC)cc1 | 6.49 µM
CC(=O)O[C@H]1C(=O)[C@@]2(C)C([C@H](OC(=O)c3ccccc3)[C@]3(O)C[C@H](OC(=O)[C@H](O)[C@@H](NC(=O)c4ccccc4)c4ccccc4)C(C)=C1C3(C)C)[C@]1(OC(C)=O)CO[C@@H]1C[C@H]2O (stereo not given in full) | < 0.16 µM
Cc1ccc(S(=O)(=O)NCc2ccncc2)cc1C | > 80 µM (inactive)
CCO[C@@H]1OC(C(=O)NCc2nc3ccccc3[nH]2)=C[C@H](C(C)(C)C)[C@H]1CCCO | > 80 µM (inactive)
C=CCSc1nc2ccccc2n1C(=O)/C=C/c1cc(OC)c(OC)c(OC)c1 | 1.79 µM
Cc1ccc(/C=C/c2ccc(N(C)C)cc2)[n+](C)c1 | > 80 µM (inactive)
CSc1nccc(-c2nn(-c3ccc(C)cc3)ccc2=O)n1 | 33.3 µM (inactive)

SMILES | IC50
COC(=O)[C@]12OC[C@]34C([C@@H](O)[C@@H]1O)[C@]1(C)CC(=O)C(O)=C(C)[C@@H]1C[C@H]3OC(=O)[C@H](O)[C@@H]24 (stereo not given in full) | < 0.16 µM
COc1ccc(-n2nnnc2-c2cccc(OC)c2)cc1 | > 80 µM (inactive)
C=CCNC(=S)N/N=C(\C)c1ccccn1 | 1.09 µM
Cc1ccc(C(=O)N/N=C/c2ccc([N+](=O)[O-])s2)cc1 | 1.26 µM
Cc1ccc(C(=O)O/N=C(\N)c2ccccn2)c(C)c1 | 0.42 µM
CCOCCCNC(=O)c1cc2c(=O)n3cccc(C)c3nc2n1C | > 80 µM (inactive)
O=C(COc1ccc2c(-c3ccccc3)cc(=O)oc2c1)Nc1cccnc1 | > 80 µM (inactive)
CCOC(=O)N=Nc1c2ccccc2c2nc3no[nH]c3nc12 | 0.73 µM
O=C(COc1ccccc1-c1ccccc1)N/N=C/c1cccc2ccccc12 | < 0.16 µM
COc1ccccc1N1CCN(C(=O)c2ccc(-c3ccc(Cl)cc3)o2)CC1 | 34.6 µM (inactive)
CC1=C([N+](=O)[O-])C(c2ccccc2)C2=C(N1)c1ccccc1C2=O (stereo not given) | 30.3 µM (inactive)
NS(=O)(=O)c1ccc(Sc2nc3ccccc3s2)c([N+](=O)[O-])c1 | 0.79 µM
Cc1noc(C)c1CSc1nc2ccccc2c(=O)n1-c1ccccc1 | 30.8 µM (inactive)
COc1ccccc1C1=NOC(COc2ccc3c(C)cc(=O)oc3c2)C1 (stereo not given) | > 80 µM (inactive)
COc1cc2c(cc1O)CC[C@@H]1[C@@H]2CC[C@]2(C)[C@@H](O)CC[C@@H]12 | > 80 µM (inactive)
CC1CCN(c2c(NCc3ccc(C(=O)N4CCc5ccccc54)cc3)c(=O)c2=O)CC1 | > 80 µM (inactive)
Cc1cc(/C=C2\Sc3ccccc3N2C)cc(C)[n+]1CC1CCCO1 (stereo not given) | 19.2 µM
O=C(N/N=C\c1c(O)ccc2ccccc12)c1cncc(Br)c1 | 4.01 µM
COc1ccc(NS(=O)(=O)c2cc(-c3cnc(C4CC4)o3)ccc2C)cc1 | 27 µM (inactive)
Cc1ccc(C)c(NS(=O)(=O)c2ccc(-c3cnc(C4CC4)o3)cc2)c1 | 13.8 µM
CCCC[C@@H](C)C[C@@H](C)C(=O)N(C)[C@@H](CC(C)C)C(=O)N[C@H](C(=O)N(C)[C@H](C(=O)N1C[C@@H](O)C[C@H]1C(=O)N1C(=O)C=C[C@@H]1C)C(C)C)C(C)OC(C)=O (stereo not given in full) | 4.87 µM
CCOc1cc(C(=O)N/N=C/C(Br)=C/c2ccccc2)cc(OCC)c1OCC | > 80 µM (inactive)
O=C(Nc1ccc(Oc2cccnc2)nc1)c1ccc(C(F)(F)F)cc1 | > 80 µM (inactive)
COc1ccc(Br)cc1/C(C)=N/NC1=NCCN1 | > 80 µM (inactive)
Cc1c(C)c2ccc(OCC(=O)Nc3ccccn3)c(C)c2oc1=O | 0.39 µM
